Experimental data taken from patent EP1205482A2, “Alkyl trimethylsiloxybenzoat compounds and method of preparation” (Clariant Life Science Molecules (Florida) Inc., priority 2000, dated 2002).

Assay: Hydrolytic stability in aqueous medium
Format: physicochemical
Details: 50/50 w/w medium of 1,2-dimethoxyethane (DME) and sterilized water
Protocol: Aqueous solutions of the products from examples 3 and 5 above were prepared as follows. A 0.715% solution of propyl 4-trimethylsiloxybenzoate was prepared in a 50/50 w/w medium of 1,2-dimethoxyethane (DME)and sterilized water. […] Accordingly this DME/water solution (I) will contain 0.500% propyl 4-hydroxybenzoate and 0.180% trimethylsilanol and/or it's condensate hexamethyldisiloxane. In a similar manner a 0.685 % solution of butyl 4-trimethylsiloxybenzoate was prepared in a 50/50 w/w medium of 1,2-dimethoxyethane (DME)and sterilized water. […] Accordingly this DME/water solution (II) will contain 0.500% butyl 4-hydroxybenzoate and 0.170% trimethylsilanol and/or it's condensate hexamethyldisiloxane. The above two aqueous solutions were employed in Zone Inhibition Testing against three bacteria: Pseudomonas aeruginosa, Escherichia coli and Staphylococcus aureus.

Row | Structure (SMILES) | hydrolytic stability
1 | CCCOC(=O)c1ccc(O[Si](C)(C)C)cc1 [Example 3, propyl 4-trimethylsiloxybenzoate] | hydrolytically unstable
2 | CCCCOC(=O)c1ccc(O[Si](C)(C)C)cc1 [Example 4, butyl 4-trimethylsiloxybenzoate] | hydrolytically unstable
